Tests used:
[1] = tested on: Human Leukemia Cell Line Kasumi-1; assay: Growth inhibition of Kasumi-1, isobologram; type: cell-based; details: Homo sapiens; Kasumi-1, RPMI1640 with 20% FBS
Protocol: A human leukemia cell line Kasummi-1, containing cells positive for cancer stem cell markers, was cultured in RPMI1640 medium supplemented with 20% FBS, and the growth inhibitory action by the combination of Am80 and 5-AZ was studied using Isobologram. […] These concentrations were taken as 1.0, and the points corresponding to 1.0 in the two axes were connected to each other via a straight line. In cases where the ratio observed for the combination effect is on the line, the effect is additive, and, in cases where the ratio is below the line, the effect is synergistic.

[2] = tested on: human breast cancer cell line MCF-7; assay: Tumor volume, MCF-7/nude mice; type: in vivo
Protocol: A tumor piece of a human breast cancer cell line MCF-7 containing cells positive for cancer stem cell markers was subcutaneously transplanted to the dorsal part of each of 6-week-old female BALB/cAJc1-nu nude mice (5 mice/group) using a trocar needle. At the time when the tumor volume reached 100 to 200 mm^3, the administration was started. Am80 was orally administered once a day at a dose of 1 mg/kg for 21 continuous days, and DXL was intravenously administered at a dose of 3.5 mg/kg from Day 1, 3 times at intervals of 4 days. In the combination group, the agents were administered at the same doses as, and by the same administration methods as, those in the cases of administration of each single agent. Measurement of the tumor diameter was carried out until the next day of the completion of the administration (Day 22). The longitudinal diameter and the transverse diameter of the tumor were measured using a caliper, and the tumor volume (mm^3) was determined according to the following formula: longitudinal diameter×transverse diameter^2/2. In the control group, physiological saline was intraperitoneally administered from Day 1, 3 times at intervals of 4 days.

[3] = tested on: Human Pancreatic Cancer Cell Panc-1 Spheroids; assay: ALDH activity (ALDEFLUOR, flow cytometry) in Panc-1 spheroids; type: cell-based; details: suspension culture with Am80 for 1 week
Protocol: As shown in Example 1, Am80 suppresses formation of cell clusters of the pancreatic cancer cell line in the suspension-culture state, and this might be due to a decrease in the number of the stem cells that act as the seeds of the cell clusters. It is known that the activity of aldehyde dehydrogenase (ALDH) is high in hematopoietic stem cells and progenitor cells, but low in differentiated cells. In view of this, a precursor Bodipy-aminoacetaldehyde (ALDEFLUOR, Stem Cell Technologies) was added to pancreatic cancer cells prepared by performing suspension culture in the presence of Am80 for 1 week, and the number of cells positive for the fluorescence of Bodipy-aminoacetate produced by metabolism by the aldehyde dehydrogenase activity was analyzed by quantification by flow cytometry.

[4] = tested on: Human Pancreatic Cancer Stem Cells Transplanted to Nude Mice; assay: Ratio of pancreatic cancer stem cells in removed tumor (anti-CD133 flow cytometry); type: in vivo; details: Am80 3 mg/kg/day for 1 month, vs control
Protocol: Pancreatic cancer cells (1×10^6 cells) containing pancreatic cancer stem cells were subcutaneously transplanted to nude mice. Mice in which tumor formation was found 2 weeks later were subjected to administration of Am80 for 1 month at 3 mg/kg/day. Thereafter, the tumor was removed, and the tumor cells were treated by trypsin, followed by measuring the ratio of pancreatic cancer stem cells by flow cytometry using an anti-CD133 antibody.

[5] = tested on: Human pancreatic cancer cells; assay: Sphere formation of gemcitabine-treated pancreatic cancer cells (colony count); type: cell-based; details: cells cultured with gemcitabine (10 nM) 1 week, then Am80 1 week
Protocol: Human pancreatic cancer cells were cultured in the suspension-culture state in the presence of gemcitabine (10 nM) for 1 week. Thereafter, Am80 was added to the culture, and suspension culture was carried out for 1 week, followed by counting the number of colonies formed.

[6] = tested on: human pancreatic cancer cells subcutaneously transplanted to nude mice; assay: Pathologic samples of tumor, morphology of cellular tissue; type: in vivo; details: Am80 3 mg/kg/day for 1 month, vs control
Protocol: Pancreatic cancer cells (1×10^6 cells) containing pancreatic cancer stem cells were subcutaneously transplanted to nude mice. Mice in which tumor formation was found 2 weeks later were subjected to administration of Am80 for 1 month at 3 mg/kg/day. Pathologic samples of each tumor were prepared to evaluate morphology of cellular tissue.

[7] = tested on: Pdx1, glucagon gene expression in human pancreatic cancer cell spheroids; assay: Quantitative RT-PCR of pancreatic tissue differentiation markers; type: cell-based; details: suspension culture with Am80 for 1 week
Protocol: Subsequently, total RNA was extracted from pancreatic cancer cells prepared by performing suspension culture in the presence of Am80 for 1 week, and quantitative RT-PCR was carried out using primers specific to pancreatic tissue-specific differentiation markers.

[8] = Body weight of tumor-bearing nude mice; type: in vivo; details: Am80 3 mg/kg/day for 1 month
Protocol: (§1) Pancreatic cancer cells (1×10^6 cells) containing pancreatic cancer stem cells were subcutaneously transplanted to nude mice. Mice in which tumor formation was found 2 weeks later were subjected to administration of Am80 for 1 month at 3 mg/kg/day.

[9] = tested on: Human Pancreatic Cancer Cell Panc-1 Spheroids; assay: CD24+/CD44+/ESA+ cells by flow cytometry in Panc-1 spheroids; type: cell-based
Text: Pancreatic cancer cells prepared by performing suspension culture in the presence of Am80 for 1 week was subjected to analysis of expression of cancer stem cell surface markers at the protein level by flow cytometry using fluorescence-labeled primary antibodies.

[10] = tested on: human breast cancer cell line MCF-7; assay: Growth inhibition of MCF-7 in vitro; type: cell-based; details: Homo sapiens, MCF7; MCF-7, 96 hours of exposure, RPMI1640 with 2% FBS
Protocol: A human breast cancer cell line MCF-7, containing cells positive for cancer stem cell markers, was cultured in RPMI1640 medium supplemented with 2% FBS, and the growth inhibitory action by the combination of Am80 and 5-AZ was studied. The IC50 values of the agents determined by 96 hours of the exposure were 1 μM and 20 μM, respectively. Thus, in order to study the growth inhibitory action, Am80 was used within the concentration range of 0.125 μM to 1 μM with a common ratio of 2, and 5-AZ was used within the concentration range of 2.5 μM to 20 μM with a common ratio of 2. In cases of use of these agents in combination, the growth inhibitory action was studied using these concentrations.

[11] = tested on: human pancreatic cancer cells containing pancreatic cancer stem cells; assay: Growth of subcutaneously transplanted pancreatic cancer in nude mice; type: in vivo; details: Am80 3 mg/kg/day for 1 month, vs control
Protocol: as §1
Pancreatic cancer cells (1×10^6 cells) containing pancreatic cancer stem cells were subcutaneously transplanted to nude mice. Mice in which tumor formation was found 2 weeks later were subjected to daily administration of Am80 at 3 mg/kg/day and administration of gemcitabine at 50 mg/kg at intervals of 3 days for 1 month. […] Gem herein represents gemcitabine.
Pancreatic cancer cells (1×10^6 cells) containing pancreatic cancer stem cells were subcutaneously transplanted to nude mice. Mice in which tumor formation was found 2 weeks later were subjected to daily administration of Am80 at 3 mg/kg/day and administration of VPA at 500 mg/kg at intervals of 3 days for 1 month.

Structure (SMILES): CC1(C)CCC(C)(C)c2cc(NC(=O)c3ccc(C(=O)O)cc3)ccc21 [Am80, tamibarotene]
- IC50 [1]: 1000 nM
- tumor volume Day 1 ([2]; Am80 1 mg/kg oral daily 21 days, DXL 3.5 mg/kg i.v. 3 times at intervals of 4 days, Day 1): 155.3 mm^3
- tumor volume Day 5 ([2]; Am80 1 mg/kg oral daily, DXL 3.5 mg/kg i.v., Day 5): 151.3 mm^3
- tumor volume Day 9 ([2]; Am80 1 mg/kg oral daily, DXL 3.5 mg/kg i.v., Day 9): 155.5 mm^3
- tumor volume Day 13 ([2]; Am80 1 mg/kg oral daily, DXL 3.5 mg/kg i.v., Day 13): 208.9 mm^3
- tumor volume Day 17 ([2]; Am80 1 mg/kg oral daily, DXL 3.5 mg/kg i.v., Day 17): 229.4 mm^3
- tumor volume Day 22 ([2]; Am80 1 mg/kg oral daily, DXL 3.5 mg/kg i.v., Day 22): 261.4 mm^3
- ALDH activity (ALDH-positive cells) [3]: concentration-dependent decrease
- ratio of pancreatic cancer stem cells (CD133) in tumor [4]: action to suppress pancreatic cancer stem cells in vivo
- sphere formation (number of colonies formed) [5]: in vitro inhibitory effect on sphere formation
- morphology of pancreatic cancer tissue [6]: differentiated morphology
- gene expression of Pdx1, glucagon and the like [7]: increased gene expression dependently on the Am80 concentration
- body weight [8]: not influenced
- abundance of cells positive for CD24+/CD44+/ESA+ ([9]; 10 μM Am80, suspension culture 1 week): reduced by half
- abundance of cells positive for CD24+/CD44+/ESA+ ([9]; addition of Am80, suspension culture 1 week): significantly decreased
- IC50 [10]: 1000 nM
- growth of the pancreatic cancer [11]: could be suppressed in vivo compared to the control

— US20200061007A1, “CANCER STEM CELL PROLIFERATION INHIBITOR” (NATIONAL INSTITUTE OF ADVANCED INDUSTRIAL SCIENCE AND …, priority 2014, published 2020)
